Experimental data from patent US20240002368A1 (QILU REGOR THERAPEUTICS INC., priority 2020, published 2024).
Like-named read-outs stand apart in the source and are kept apart here.

Assays:
Trex1−/− mice = settings: given to Trex1−/− mice; cited from earlier work
STING pathway = assay: IFN β reporter assay (HTRF, 2′3′-cGAMP-stimulated THP1 cells); format: cell-based, human
Protocol: STING pathway deactivation by the compounds described herein was measured using THP1 cells. The THP1 Cells (obtained from ATCC, Cat #TIB-202) were maintained in RPMI-1640 (Gibco, Cat #22400105), 10% FBS, 1% Pen-Strep, 0.05 mM 2-mercaptoethanol. For STING activation, 2′3′-cGAMP (MW 718.38, obtained from Invivogen) was used and prepared in serum-free RPMI-1640 media. Growth media: RPMI-1640 (HEPES, glutamine), 10% FBS, 1% Pen-Strep, 0.05 mM 2-mercaptoethanol. Assay media: RPMI-1640 (HEPES, glutamine), 0.5% FBS. 2′3′-cGAMP: Dissolve 2′3′-cGAMP to 10 mM stock in H2O.
The cells were prepared and seeded at 100K, 90 μL/well with assay media in cell culture plate (Greiner 655180). The compounds were added in 96-well tissue culture plates by Tecan D300e for a final concentration of 0.00137-3 μM.
Lipo2000/3000 and 2′3′-cGAMP stock solutions were diluted respectively in serum-free RPMI-1640 media. The diluted 2′3′-cGAMP and Lipo (V/V=1:1) were mixed and stood for 15 min at room temperature. 10 μL 2,3-cGAMP/Lipofectamine (10×) was transferred to the 96-well assay plate with a final 2′3′-cGAMP concentration of 5 μM. The cell plates were centrifuged at 1000 rpm for 5 min after incubating at 37° C., 5% CO2 overnight.
All reagents (human IFN beta kit, Cisbio 62HIFNBPEG) were warmed to room temperature for at least 30 min before the assay. The instructions of the kit were followed to prepare the detection media. 14 μL of cell supernatants was transferred into their dedicated wells in 384-well plate. Then 2 μL of the activation reagent solution and 4 μL of the mixed antibody solution were added to all wells. The plate was sealed and incubated for 3 h at room temperature.
The HTRF signal was read in Envision (PerkinElmer). IFN β reporter activity was then measured. The calculated ratio is the signal at 665 nm/signal at 615 nm. IC50 values are calculated by using standard methods known in the art.

[1] = Homo sapiens, THP-1, read-out: IFN β reporter activity IC50
[2] = Homo sapiens, THP-1, THP1 cells, 5 μM 2′3′-cGAMP, IFN β secretion inhibition, class symbols, read-out: IFN β reporter activity IC50

Structure (SMILES)	IC50 (STING pathway; [1]) [nM]	IC50 (STING pathway; [2]) [nM]	other results
CCN(CCO)CCCC(C)Nc1ccnc2cc(Cl)ccc12 (stereo not shown) [hydrochloroquine]	–	–	development of experimental autoimmune myocarditis (Trex1−/− mice): prevents
O=C(Nc1c[nH]c2ccccc12)c1nn(CC2CC2)c2cc(C(F)(F)F)ccc12 [Example 30]	50 to 200	–	–
C[C@H](NCc1cc2c(cc1F)c(C(=O)Nc1c[nH]c3ccc(F)cc13)cn2C)C(F)(F)F [Example 104]	–	< 50	–
Cn1cc(C(=O)Nc2c[nH]c3ccccc23)c2ccc(C(F)(F)F)cc21 [Example 18]	50 to 200	–	–
Cn1cc(C(=O)Nc2c[nH]c3ccc(F)cc23)c2ccc(Cl)cc21 [Example 32]	< 50	–	–
Cn1cc(C(=O)Nc2c[nH]c3ccc(F)cc23)c2cc(F)c(CNCCC(F)(F)F)cc21 [Example 97, 5-fluoro-N-(5-fluoro-1H-indol-3-yl)-1-methyl-6-[(3,3,3-trifluoropropylamino)methyl]indole-3-carboxamide]	–	50 to 200	–
CN1CCC(c2cc3c(cc2F)c(C(=O)Nc2c[nH]c4ccc(F)cc24)cn3C)CC1 [Example 116, 5-fluoro-N-(5-fluoro-1H-indol-3-yl)-1-methyl-6-(1-methyl-4-piperidyl)indole-3-carboxamide]	–	> 1000	–
CN1CC=C(c2ccc3c(C(=O)Nc4c[nH]c5ccc(F)cc45)cn(C)c3c2)CC1 [Example 117]	> 1000	–	–
Cn1cc(C(=O)Nc2c[nH]c3ccc(F)cc23)c2cc(F)c(CNCC(F)(F)F)cc21 [Example 91, 5-fluoro-N-(5-fluoro-1H-indol-3-yl)-1-methyl-6-[(2,2,2-trifluoroethylamino)methyl]indole-3-carboxamide]	–	50 to 200	–
O=C(Nc1c[nH]c2ccc(F)cc12)c1n[nH]c2cc(Cl)c(Cl)cc12 [Example 12]	–	< 50	–
O=C(Nc1c[nH]c2ccc(F)cc12)c1n[nH]c2cc(Oc3ccncc3)ccc12 [Example 62]	–	> 1000	–
O=C(Nc1c[nH]c2ccccc12)c1n[nH]c2cc(C(F)(F)F)ccc12 [Example 2]	–	–	IC50 (STING pathway; THP1 cells, 5 μM 2′3′-cGAMP, IFN β secretion inhibition, class symbols, read-out: IFN β reporter activity IC50): 50 to 200 nM
Cn1cc(C(=O)Nc2c[nH]c3ccc(F)cc23)c2cc(C(F)(F)F)cnc21 [Example 22]	200 to 1000	–	–
CN(C)Cc1ccc2[nH]cc(NC(=O)c3cn(C)c4cc(C(F)(F)F)ccc34)c2c1 [Example 111, N-(5-((dimethylamino)methyl)-1H-indol-3-yl)-1-methyl-6-(trifluoromethyl)-1H-indole-3-carboxamide]	–	> 1000	–
Cn1cc(C(=O)Nc2c[nH]c3ccc(F)cc23)c2ccc(C3=CCOCC3)cc21 [Example 72]	–	50 to 200	–
C[C@H]1COCCN1c1cc2c(cc1F)c(C(=O)Nc1c[nH]c3ccc(F)cc13)cn2C [Example 49]	–	200 to 1000	–
NC(=O)c1ccc2c(C(=O)N(CC(F)(F)F)c3c[nH]c4cc(F)ccc34)n[nH]c2c1 [Example 89, N-(6-fluoro-1H-indol-3-yl)-N-(2,2,2-trifluoroethyl)-1H-indazole-3,6-dicarboxamide]	–	200 to 1000	–
Cn1cc(C(=O)Nc2c[nH]c3ccc(C#N)cc23)c2ccc(C(F)(F)F)cc21 [Example 36]	< 50	–	–
Cn1cc(C(=O)Nc2c[nH]c3ccc(S(C)(=O)=O)cc23)c2ccc(C(F)(F)F)cc21 [Example 37]	–	> 1000	–
Cn1cc(C(=O)Nc2c[nH]c3ccc(F)cc23)c2cc(F)c(CN3CCC(F)CC3)cc21 [Example 102]	–	200 to 1000	–
O=C(Nc1c[nH]c2cc(F)c(F)cc12)c1cnc2[nH]ncc2c1 [Comparator A, reference compound]	–	–	IC50 (STING pathway; Homo sapiens, THP-1, THP1 cells, 5 μM 2′3′-cGAMP, IFN β secretion inhibition, numeric values (comparators), read-out: IFN β reporter activity IC50): > 30000 nM
Cn1cc(C(=O)Nc2c[nH]c3ccc(F)cc23)c2ccc(Cl)nc21 [Example 71]	50 to 200	–	–
N#Cc1ccc2[nH]cc(NC(=O)c3cn(C4CC4)c4nc(OCC(F)(F)F)ccc34)c2c1 [Example 41]	50 to 200	–	–
CN1CC=C(c2cc3c(cc2F)c(C(=O)Nc2c[nH]c4ccc(F)cc24)cn3C)CC1 [Example 115, 5-fluoro-N-(5-fluoro-1H-indol-3-yl)-1-methyl-6-(1-methyl-3,6-dihydro-2H-pyridin-4-yl)indole-3-carboxamide]	> 1000	–	–
N#Cc1ccc2[nH]cc(NC(=O)c3cn(C4CC4)c4nc(O[C@H]5CCOC5)ccc34)c2c1 [Example 42]	200 to 1000	–	–
O=C(Nc1c[nH]c2ccc(F)cc12)c1n[nH]c2cc(C3CCOCC3)ccc12 [Example 28]	–	50 to 200	–
O=C(Nc1c[nH]c2ccc(F)cc12)c1n[nH]c2cc(N3CCOCC3)ccc12 [Example 60, N-(5-fluoro-1H-indol-3-yl)-6-morpholino-1H-indazole-3-carboxamide]	–	200 to 1000	–
Cn1nc(C(=O)Nc2c[nH]c3ccccc23)c2ccc(C#N)cc21 [Example 86, 6-cyano-N-(1H-indol-3-yl)-1-methyl-indazole-3-carboxamide]	–	> 1000	–
